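Results reflect a 48-hour exposure of cells in 96-well plates to compound at five concentrations. Here, GI50 denotes the concentration required for 50% inhibition of growth. TGI denotes the concentration required for complete inhibition of growth.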
What was measured:
Assay in all cases: NCI tumour cell line growth inhibition, 48 h
UACC-62 melanoma = tested on: UACC-62 melanoma
ACHN renal = tested on: ACHN renal
HL-60(TB) leukemia = tested on: HL-60(TB) leukemia
A549 NSCLC = tested on: A549 NSCLC
MDA-MB-231 breast = tested on: MDA-MB-231 breast
SNB-19 CNS = tested on: SNB-19 CNS
SW-620 colon = tested on: SW-620 colon
NCI/ADR-RES ovarian = tested on: NCI/ADR-RES ovarian
MOLT-4 leukemia = tested on: MOLT-4 leukemia
KM12 colon = tested on: KM12 colon
CAKI-1 renal = tested on: CAKI-1 renal
NCI-H460 lung = tested on: NCI-H460 lung
OVCAR-8 ovarian = tested on: OVCAR-8 ovarian
IGROV1 ovarian = tested on: IGROV1 ovarian
SNB-78 CNS = tested on: SNB-78 CNS
RXF 393 renal = tested on: RXF 393 renal
K-562 leukemia = tested on: K-562 leukemia

SMILES | TGI (UACC-62 melanoma) [µM] | TGI (ACHN renal) [µM] | TGI (HL-60(TB) leukemia) [µM] | TGI (A549 NSCLC) [µM] | TGI (MDA-MB-231 breast) [µM] | TGI (SNB-19 CNS) [µM] | TGI (SW-620 colon) [µM] | TGI (NCI/ADR-RES ovarian) [µM] | TGI (MOLT-4 leukemia) [µM] | TGI (KM12 colon) [µM] | TGI (CAKI-1 renal) [µM] | TGI (NCI-H460 lung) [µM] | TGI (OVCAR-8 ovarian) [µM] | TGI (IGROV1 ovarian) [µM] | TGI (SNB-78 CNS) [µM] | TGI (RXF 393 renal) [µM] | TGI (K-562 leukemia) [µM] | GI50 (NCI/ADR-RES ovarian) [µM] | GI50 (CAKI-1 renal) [µM]
C=CC1OC(CCCOC(=O)C(C)(C)C)O[C@@H]1CC (stereo partly drawn) | > 100 | > 100 | > 100 | > 100 | > 100 | > 100 | > 100 | > 100 | > 100 | > 100 | > 100 | > 100 | > 100 | > 100 |  |  |  |  | 
C=C(C)C1Cc2c(cc(O)c3c(=O)c4ccccc4n(C)c23)O1 (stereo not drawn) |  | > 100 | > 100 | > 100 |  | 34.5 | > 100 |  | > 100 | > 100 | 56.7 | > 100 |  |  | > 100 | 33.9 |  |  | 
C/C=C(/C)C(=O)O[C@@H]1c2c(C)coc2C[C@H]2CC[C@H](O)[C@H](C)[C@]21C | > 100 | > 100 | 87 |  | > 100 | > 100 | > 100 | 55.9 | > 100 | > 100 | > 100 | > 100 | > 100 | > 100 |  | 78.2 | > 100 |  | 
O=[N+]([O-])c1ccc(/C=C/c2ccc(N=Nc3ccc(/C=C/c4ccc([N+](=O)[O-])cc4S(=O)(=O)O)c(S(=O)(=O)O)c3)cc2S(=O)(=O)O)c(S(=O)(=O)O)c1 | > 100 |  | > 100 | > 100 |  |  | > 100 | > 100 | > 100 | > 100 |  | > 100 | > 100 | > 100 | > 100 | > 100 | > 100 |  | 
O=C(O)Cc1ccc(N2N=C(c3ccccc3)CC2=O)cc1 | > 100 | > 100 | > 100 |  | > 100 | > 100 | > 100 | > 100 | > 100 | > 100 | > 100 | > 100 | > 100 | > 100 |  |  | > 100 |  | 
COc1ccc(/C(Cl)=C(\C=O)c2ccc(F)cc2)cc1 | 56 | 35.6 | 9.12 |  |  | > 100 | > 100 |  | 50.9 |  | 41 | 20.1 | > 100 | 53.6 | 53.1 |  | > 100 |  | 
[Cl-].[Rh+3].c1ccc(-c2ccnc3c2ccc2c(-c4ccccc4)ccnc23)cc1.c1ccc(-c2ccnc3c2ccc2c(-c4ccccc4)ccnc23)cc1.c1ccc(-c2ccnc3c2ccc2c(-c4ccccc4)ccnc23)cc1 | > 100 |  | 60.3 | > 100 |  | > 100 | > 100 | > 100 | > 100 | 19.7 | > 100 | > 100 | > 100 | > 100 | > 100 | > 100 | > 78.4 | 73.2 | 60.5
CN(C)CCNCc1c2ccccc2c(CNCCN(C)C)c2ccccc12 | > 61.6 |  | 46.8 | > 59.9 |  |  | > 73.6 | > 100 | 8.31 | > 100 |  | > 100 | > 100 | > 69.4 | 98.4 | 62.7 | > 100 |  | 
COC(=O)[C@@H]1c2cc3c(c(O)c2[C@@H](OC)C[C@@]1(C)O)C(=O)c1c(O)cc2c(c1C3=O)OC1O[C@@]2(C)[C@H](O)[C@@H](N(C)C)[C@@H]1O | 0.534 |  |  | 1.45 |  | 2.37 | 2.21 | 4.22 | > 150 | 2.34 | 0.749 | 0.488 | 2.05 | 1.7 | 4.54 | 1.37 | 7.31 |  | 

Source: PubChem BioAssay (NCI)
